Measurements taken from BindingDB's records for doi:10.1016/s0960-894x(00)00478-9 (Laval University, 2001).

Legend:
[1] = target: Glutamine--tRNA ligase (Escherichia coli) (UniProt P00962); assay: The compound was evaluated for inhibition of Glutaminyl-tRNA synthetase for Escherichia coli with respect to ATP.
[2] = The compound was evaluated for inhibition of Glutaminyl-tRNA synthetase with respect to glutamine.

Sequence of Glutamine--tRNA ligase (Escherichia coli) (P00962 whole entry, looked up): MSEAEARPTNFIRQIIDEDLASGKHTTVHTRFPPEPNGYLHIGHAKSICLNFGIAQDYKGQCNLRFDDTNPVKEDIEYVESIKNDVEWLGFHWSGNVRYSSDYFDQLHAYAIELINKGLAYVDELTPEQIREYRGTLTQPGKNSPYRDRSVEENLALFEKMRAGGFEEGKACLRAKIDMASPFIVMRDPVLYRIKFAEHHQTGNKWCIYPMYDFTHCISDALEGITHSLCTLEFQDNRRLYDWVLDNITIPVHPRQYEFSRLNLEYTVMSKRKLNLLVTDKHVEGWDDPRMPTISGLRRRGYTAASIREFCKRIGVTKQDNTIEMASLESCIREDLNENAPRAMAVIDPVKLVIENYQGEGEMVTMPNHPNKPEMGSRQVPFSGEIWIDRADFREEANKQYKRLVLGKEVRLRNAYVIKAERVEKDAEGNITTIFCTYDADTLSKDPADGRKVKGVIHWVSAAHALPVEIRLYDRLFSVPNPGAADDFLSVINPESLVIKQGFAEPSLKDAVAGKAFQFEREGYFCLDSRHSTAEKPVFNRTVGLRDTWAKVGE

- Ki [1]: 860 nM
- Ki [2]: 280 nM
SMILES: NC(=O)CCC(N)COP(=O)(O)OC[C@H]1OC(n2cnc3c(N)ncnc32)[C@H](O)[C@@H]1O (some centres not stated)
